# From patent US6310093A (priority 1998, dated 2001)
# Test system: neuronal cultures
# Assay: Glutamate production by intact and damaged neuronal cultures with added glutamine
# Format: cell-based, mouse (Swiss Webster)
# Details: for Glutamate concentration (in words) / Glutamate production (S): 2 mM Gln
# Experimental: When 2 mM glutamine is added to intact neuronal cultures, the rate at which glutamate accumulates in the culture medium increases with time (FIG. 2). Since the clearance of medium glutamate by neuronal cultures is extremely slow, one estimate of the rate of glutamate production by neurons exposed to glutamine can be obtained from the initial rate of glutamate accumulation. Using the difference in glutamate concentrations at 1 and 15 min after glutamine addition, a value of 0.032±0.006 μM/min (12.8 pmol/min) was obtained. Since glutamine exposure itself eventually causes neuronal death and high rates of glutamine hydrolysis, this estimate of glutamate production should be viewed as an upper limit. However, this value is similar to that obtained by comparing glutamate production by glial and mixed neuronal-glial cultures exposed to glutamine (see below).
# In the absence of added glutamine (i.e., in the 0.15 mM glutamine manufactured by the neuronal cultures), glutamate production into the medium of cultures lysed by freezing and thawing occurred at a rate of 0.035±0.006 μM/min (14 pmol/min). […] Thus, damaged neurons incubated in 2 mM glutamine produce within 6-8 min an amount equal to that released by freeze-thawing.
# Pre-column derivatization with o-phthalaldehyde (OPA, Sigma) and separation by reversed phase HPLC was used. A Gilson HPLC was fitted with a Hewlett-Packard model 1046A fluorimetric detector (excitation 340 nm, emission 420 nm). Medium was collected from cell culture at various times, and frozen at -80° C., prior to dilution of 5 or 10 μl into auto-sampler vials containing 40 or 45 μl dimethylformamide:water 1:3 (derivatives with 2-mercaptoethanol) or 1:9 (derivatives with N-acetyl-L-cysteine). For analysis of the derivatives formed with 2-mercaptoethanol, samples were reacted according to published methods (Newcomb, R. (1989) LC GC 7, 570-578; Lindroth, P., and Mopper. K., (1979) Anal. Chem. 51, 1667-1674.), and a gradient of 0-40% methanol in 1.25 mM sodium phosphate pH 6.2 over 20 min was used to elute the derivatives from a 4.5×250 mm Beckman Ultrasphere octadecylsilica column (dp 5 μm) at 1 ml/min. For analysis of the derivatives formed with N-acetyl-L-cysteine (Bruckner), samples were reacted with 25 μl of 1 mg/ml OPA, and 50 μl of 1 mg/ml N-acetyl-L-cysteine (Fluka) in 0.5 M potassium borate pH 10.0. Chromatography was carried out on a 4.5×250 mm Phenomonex Primesphere "HC" octadecylsilica column (dp 5 μm) using a gradient of 0-35% methanol in 15 mM sodium phosphate pH 6.2 (0.13% tetrahydrofuran) over 65 minutes at 1 ml/min. It was shown for each of the experimental conditions (ie. glial and control and damaged neuronal and mixed cultures) that both analytical systems gave results for glutamate and glutamine measurements which were, within error, identical.
# Glutamate concentrations were converted to units of pmol/μl of culture medium, or μM. In the absence of cellular uptake (ie, in damaged neuronal cultures), the rate of glutamate production was obtained directly from the measurements of the amounts of glutamate in culture medium at various times.
structure (smiles),measurement,setting,value
"NC(=O)CC[C@H](N)C(=O)O [Gln, glutamine]",glutamate production by damaged neurons vs intact neurons or glia,2 mM glutamine,10-30 fold
same,Glutamate concentration (in words),NMDA-treated neurons,increases linearly
same,Glutamate production (S),NMDA-treated neurons,0.54 ± 0.09 µM/min
same,glutamate production per culture,"NMDA-treated neurons, 2 mM glutamine",216 pmol/min
same,Glutamate concentration (in words),freeze-thaw damaged neurons,increases linearly
same,Glutamate production (S),freeze-thaw damaged neurons,0.79 ± 0.08 µM/min
same,glutamate production per culture,"freeze-thawed neurons, 2 mM glutamine",316 pmol/min
same,Glutamate concentration (in words),intact neurons,increases
same,Glutamate production (S),intact neurons,0.032 ± 0.006 µM/min
same,glutamate production per culture,"intact neurons, 2 mM glutamine",12.8 pmol/min
